The source of these data is patent US20230355645A1, “PHARMACEUTICAL COMPOSITION” (priority 2020, published 2023).

For data set [1], the system named is IL-6 production by Caco-2 cells. Conditions: Caco-2 model, Couch et al. Clin. Sci. 2017; cited from earlier work.
Another data set relates to Caco-2 cells. In words: MTT test, toxicity of CBD towards Caco-2. Format: cell-based, human. Conditions: CBD 3 and 5 μmol/l, 24 h incubation. The procedure: (§1) Human Caco-2 intestinal cells and Ishikawa endometrial cells were used in an in vitro study of the effect of cannabidiol (CBD) and sodium hyaluronate. In the first phase of the experiment, the safe concentration of CBD was determined based on the results of MTT measurements, a test for the reduction of 3-(4,5-dimethylthiazol-2-yl)-2,5-diphenyltetrazolium bromide (MTT) to the corresponding formazan. The test was performed according to M. D. Maines, L. G. Costa, D. J. Reed, et al. Current protocols in toxicology. New York: John Wiley & Sons. (1998).
(§2) Cells seeded in a 96-well plate at a concentration of 3×10^4 cells/ml, 100 μl/well, which were allowed to adhere for 24 hours, were subsequently incubated for 24 hours with CBD in a concentration range of 100 to 0.78 μmol/l dissolved in serum-free culture medium containing MEM (Minimum Essential Medium Eagle) supplemented by 2 mM glutamine, 1% NEAA (Non essential Amino Acid), and penicillin 100 IU/ml and streptomycin 100 ug/ml. At the end of the incubation period, 100 μl of MTT mixture (0.5 mg/mL in serum-free culture medium) was added for the period of 2 hours. At the end of the incubation period and aspiration of the MTT mixture, 100 μl of DMSO with NH3 (1%, v/v) were added. The absorbance was measured at 540 nm (INFINITE M200 PRO Tecan, Schoeller). […]
On the technique in general: Formazan colour is commonly taken as a measure of viable cells.

The conditions of data set [2]: especially in solution by exposure to light, atmospheric oxygen and acidic pH; cited from earlier work.
The test system of data set [3] is IL-6 production by Ishikawa cells. In words: Production of IL-6 by Ishikawa cells following incubation with LPS (ELISA). The data set is classed as cell-based, human. Conditions: after LPS induction, both doses (3 and 5 μmol/l). The procedure:
(§3) Cells (Caco-2, Ishikawa) were seeded in 6-well plates in culture medium containing MEM (Minimum Essential Medium Eagle) supplemented by 2 mM glutamine, 1% NEAA (Non essential Amino Acid), 10% FBS (Fetal Bovine Serum), penicillin 100 IU/ml and streptomycin 100 ug/ml and allowed to adhere for a minimum of 24 hours and then allowed to grow to confluence. They were then rinsed with PBS (2 ml) and treated with LPS (E. coli) 2 μg/ml in serum-free culture medium, 2 ml per well 3 times after 3 hours. After the last 3 hours of incubation, the test substances (CBD, CBD+HA in serum-free culture medium) were added to the cells and the samples were incubated for another 22 hours. The culture medium was then removed, frozen at −80° C. for downstream determination of pro-inflammatory cytokines (IL-6 and IL-8) by ELISA (Human ELISA Development Kit, Cat. Nos. 900-K16 and 900-K18, PeproTech, Baria, Czech Republic). The results are expressed relative to a control K (cells cultured only with serum-free culture medium), as a percentage of the control, expressed as mean±SEM. The measurement was performed in three independent experiments. KL are cells cultured with LPS. Testing was performed in triplicates.
(ELISA stands for enzyme-linked immunosorbent assay.)

For data set [4] the following is noted: cited from earlier work.
The test system of data set [5] is IL-8 production by Caco-2 cells. The data set is described as follows: Production of IL-8 by Caco-2 cells following incubation with LPS (ELISA). The data set is classed as cell-based, human. Conditions: Caco-2, after LPS induction, higher dose of CBD. On the procedure:
as §3

The test system of data set [6] is Ishikawa endometrial cells. The data set is described as follows: MTT test, toxicity of CBD towards Ishikawa. Conditions: CBD 3 and 5 μmol/l, 24 h incubation. The data set is classed as cell-based, human. The procedure:
as §1, §2

In data set [7] the test system is IL-6 production by Caco-2 cells. In words: Production of IL-6 by Caco-2 cells following incubation with LPS (ELISA). The data set is classed as cell-based, human. Conditions: Caco-2, after LPS induction, both doses (3 and 5 μmol/l). On the procedure: as §3
For data set [8], the system named is IL-8 production by Ishikawa cells. In words: Production of IL-8 by Ishikawa cells following incubation with LPS (ELISA). Format: cell-based, human. Conditions: after LPS induction, both doses of CBD. On the procedure: as §3
The subject of data set [9] is Balb/c 3T3-L1 mouse fibroblasts. The data set is described as follows: Cytotoxicity assay, neutral red incorporation. Format: cell-based. Conditions: 24 h. On the procedure:
Balb/c 3T3-L1 mouse fibroblasts (ECACC 86052701) were used in the cytotoxicity assay. The cells were cultured in D-MEM medium (Dulbecco's modification of Eagle's essential medium, Lonza) containing antibiotics (penicillin 100 IU/ml, streptomycin 100 ug/ml), enriched with 10% inactivated calf serum, pH 7.2.
Suppositories prepared according to Example 1 were tested. The positive control (PK) was sodium lauryl sulfate (SLS), the cell control was serum-free culture medium.
The suppository extract was prepared in the ratio of 0.2 g of sample per 1 ml of extracting agent (serum-free D-MEM) according to ČSN EN ISO 10993-12 (2012). The extraction was performed for 24 hours at 37° C., in a closed culture flask under aseptic conditions according to ČSN EN ISO 10993-5 (2012). The resulting 100% extract was further diluted with serum-free culture medium.
Flat bottom tissue culture plates of 8×12 wells were used to culture the cells. The cells were suspended at a concentration of 10^5 cells in 1 ml of the culture medium, inoculating 0.1 ml of the suspension into 1 well. Culture conditions 37° C., 7.5% CO2. Pre-cultivation to obtain a cell culture monolayer was performed 24 hours before exposure to the test material. The cultures were established in quadruplets for the test extracts and for the controls. After 24 hours of precultivation, the culture medium and 0.2 ml of the extract from the test sample, or its serial dilution, respectively. This was followed by culture for 24 hours at 37° C., 7.5% CO2 and staining with neutral red (0.2 ml of neutral red solution per well, incubation for 3 hours, ethanol/acetic acid fixation solution). After completion of the culture, cytotoxicity was determined quantitatively (fluorimetrically) based on the incorporation of neutral red as a vital dye.
The fluorimetric method for determining cytotoxicity is based on the incorporation of a vital dye into living cells and the detection of fluorescence in an excitation (530 nm) and emission filter (590 nm) system using cold light. The degree of cytotoxicity is expressed in % of the detected fluorescence in the culture containing the test extract relative to the control culture in the absence of the test extract. Fluorescence is detected in FSU units of fluorescence intensity. For quantification, the viability of the culture is calculated as follows:
culture viability (%)=(average FSU of the test sample−average FSU of the blank)/(average FSU of the control−average FSU of the blank)
The mean fluorescence values for each group represent the average fluorescence value from all four wells after subtracting the average fluorescence value of the eight wells with fixation solution (blank). The control is serum-free culture medium.

For the next data set, the system named is human volunteers. Conditions: in vivo.

As for `C=C(C)[C@@H]1CCC(C)=C[C@H]1c1c(O)cc(CCCCC)cc1O` [CBD, Cannabidiol], in [1], the “increase in IL-6 concentration compared to the original value after induction of inflammation” value is recorded as “more than 70%”. The “toxicity by MTT values” (in the data set on Caco-2 cells; in data set [6]) was “sub-toxic” in each case. In addition, the stability result in [2] is listed as “prone to degradation”. Also, the IL-6 levels entry in data set [3] and in data set [7] was “significant decrease” throughout. For the same molecule, the “log P” value in data set [4] is 6-7. Moreover, the IL-8 concentration result in data set [5] was “at the same level”. Besides, the IL-8 levels entry in data set [8] was “decrease”.

As for `CCCCCCCCCCCCOS(=O)(=O)[O-].[Na+]` [PK-SLS, sodium lauryl sulfate], the “Mean fluorescence (FSU)” value was determined as 2743.4 FSU in data set [9] (Test 1, 1 μg/ml); 891.1 FSU in data set [9] (Test 1, 10 μg/ml); 113.9 FSU in data set [9] (Test 1, 20 μg/ml); 3187.8 FSU in data set [9] (Test 2, 1 μg/ml); 542.5 FSU in [9] (Test 2, 10 μg/ml); 326.3 FSU in [9] (Test 2, 20 μg/ml). Further, the “Relative to control %” value in [9] (Test 1, 1 μg/ml) turned out to be 98.8%; in data set [9] (Test 1, 10 μg/ml), 32.1%; in data set [9] (Test 1, 20 μg/ml), 16.0%; in data set [9] (Test 2, 1 μg/ml), 98.9%; in data set [9] (Test 2, 10 μg/ml), 16.8%; in [9] (Test 2, 20 μg/ml), 10.1%. In addition, the “Total number of reactions, Reaction yes/no” value in the data set with human volunteers (human) is 30/30. For the same molecule, in the data set with human volunteers, the Reaction yes/no result is “YES”.
